Laboratory results taken from patent publication US6664271B1, “Immunopotentiator agents” (Eli Lilly and Company, priority 1999, dated 2003).
Marks after values point to notes of the source that are not given here.

Columns and labels:
mononuclear leukocytes [1] = assay: mammalian T-lymphocyte blastogenesis assay, bovine (Example 75); type: cell-based
Protocol: (§1) The compound prepared in Example 30, namely (S)-ethyl 1-(2-thiopheneacetyl)-3-peridinecarboxylate, was further evaluated for in vitro T-lymphocyte blastogenic activity from mammalian species other than avian.
(§2) The mammalian blastogenesis assays were conducted with the same protocol as the vian assays with the following exceptions:
(§3) 1. Only mononuclear leukocytes are used for the mammalian assay. The cells are obtained from whole blood by differential centrifugation using Histopague 1.077 (Sigma Chemical Company, St. Louis, Mo).
(§4) 2. 0.5% Fetal Bovine Serum (FBS) [GIBCOBRL, Grand Island N.Y.] is added to RPMI 1640 medium. Exception: Non-human primate plasma is used instead of FBS at 5 ml/liter to RPMI 1640 medium.
(§5) 3. 5×10^5 cells/well were used with the mammalian assays.

mononuclear leukocytes [2] = assay: mammalian T-lymphocyte blastogenesis assay, canine (Example 75); type: cell-based
Protocol: as §1, §2, §3, §4, §5

E. coli = assay: colibacillosis infection model in broiler chickens, Trial B (Example 78); type: in vivo, chicken

**Q.** With `CCOC(=O)[C@H]1CCCN(C(=O)Cc2cccs2)C1` [Example 30, (S)-Ethyl 1-(2-Thiopheneacetyl)-3-piperidinecarboxylate] as the compound, how does the MSC (mononuclear leukocytes [1]) read?
**A.** The MSC was 10 μg μg/ml.

**Q.** And the MTC (mononuclear leukocytes [1])?
**A.** Its MTC is 1 mg/mL.

**Q.** And the MSC (mononuclear leukocytes [2])?
**A.** Its MSC is 1 μg μg/ml.

**Q.** What about the MTC (mononuclear leukocytes [2]) of the same compound?
**A.** Its MTC is 100 µg/mL.

**Q.** And the “% Colibacillosis-associated Mortality” value (E. coli; 2 μg/chick subcutaneous)?
**A.** Its value is 5%.

**Q.** What about the “Average Weight Gain/Bird (lbs)” value (E. coli; 2 μg/chick subcutaneous) of the same compound?
**A.** Its value is 2.53 lb (1.15 kg).

**Q.** And the Feed/Gain (E. coli; 2 μg/chick subcutaneous)?
**A.** The Feed/Gain was 1.56.

**Q.** And the “% Colibacillosis-associated Mortality” value (E. coli; 12.5 μg/chick subcutaneous)?
**A.** The value was 2.8* %.

**Q.** And the “% Total Mortality” value (E. coli; 12.5 μg/chick subcutaneous)?
**A.** Its value is 10* %.

**Q.** And the “Average Weight Gain/Bird (lbs)” value (E. coli; 12.5 μg/chick subcutaneous)?
**A.** Its value is 2.44 lb (1.11 kg).

**Q.** And the Feed/Gain (E. coli; 12.5 μg/chick subcutaneous)?
**A.** The Feed/Gain was 1.59.

**Q.** And the “% Colibacillosis-associated Mortality” value (E. coli; 25 μg/chick subcutaneous)?
**A.** Its value is 6.8%.

**Q.** And the “% Total Mortality” value (E. coli; 25 μg/chick subcutaneous)?
**A.** Its value is 14.3%.

**Q.** And the “Average Weight Gain/Bird (lbs)” value (E. coli; 25 μg/chick subcutaneous)?
**A.** Its value is 2.49 lb (1.13 kg).

**Q.** What about the Feed/Gain (E. coli; 25 μg/chick subcutaneous) of the same compound?
**A.** The Feed/Gain was 1.57.
